Experimental data: ChEMBL document CHEMBL1150831, “Immunosuppressive sesquiterpene alkaloids from Tripterygium wilfordii” (2001)
Activity calls are given as the source filed them. No cut-off for these calls is given here.

Assays:
Format in all cases: functional
[1] = test system: PBMC; test: Immunosuppressive activity in human PBMC assessed as inhibition of LPS-stimulated IL1-beta production at 10 ug/mL after 18 to 24 hrs by ELISA
[2] = test system: PBMC; test: Immunosuppressive activity in human PBMC assessed as inhibition of LPS-stimulated TNFalpha production at 10 ug/mL after 18 to 24 hrs by ELISA
[3] = test system: PBMC; test: Immunosuppressive activity in human PBMC assessed as inhibition of LPS-stimulated IL4 production at 10 ug/mL after 18 to 24 hrs by ELISA
[4] = test system: PBMC; test: Immunosuppressive activity in human PBMC assessed as inhibition of LPS-stimulated IL2 production at 10 ug/mL after 18 to 24 hrs by ELISA
[5] = test system: PBMC; test: Immunosuppressive activity in human PBMC assessed as inhibition of LPS-stimulated IFN-gamma production at 10 ug/mL after 18 to 24 hrs by ELISA
[6] = test system: PBMC; test: Immunosuppressive activity in human PBMC assessed as inhibition of LPS-stimulated IL8 production at 10 ug/mL after 18 to 24 hrs by ELISA

CC(=O)OC[C@]12[C@H](OC(C)=O)C(=O)[C@@H]3[C@@H](OC(C)=O)[C@@]14O[C@@]3(C)COC(=O)c1cnccc1CCC(C)(O)C(=O)O[C@@H]([C@H](OC(C)=O)[C@@H]2OC(C)=O)[C@]4(C)O (stereo partly specified)
inhibition at 10 µg/mL [1]: 18%
inhibition at 10 µg/mL [2]: 10%
inhibition at 10 µg/mL [3]: 77%
inhibition at 10 µg/mL [4]: 47%
inhibition at 10 µg/mL [5]: 62%
inhibition at 10 µg/mL [6]: 64%

CC(=O)OC[C@]12[C@H](OC(C)=O)[C@H](OC(C)=O)[C@@H]3[C@@H](OC(C)=O)[C@@]14O[C@@]3(C)COC(=O)c1cccnc1CC[C@@](C)(O)C(=O)O[C@@H]([C@H](OC(=O)c1ccccc1)[C@@H]2OC(C)=O)[C@]4(C)O
inhibition at 10 µg/mL [1]: -6%
inhibition at 10 µg/mL [2]: 2%
inhibition at 10 µg/mL [3]: 50%
inhibition at 10 µg/mL [4]: 35%
inhibition at 10 µg/mL [5]: 4%
inhibition at 10 µg/mL [6]: 8%

CC(=O)OC[C@]12[C@H](OC(C)=O)[C@H](OC(C)=O)[C@@H]3[C@@H](OC(=O)c4ccccc4)[C@@]14O[C@@]3(C)COC(=O)c1cccnc1C(C)C(C)C(=O)O[C@@H]([C@H](OC(C)=O)[C@@H]2OC(=O)c1ccccc1)[C@]4(C)O (stereo partly specified)
inhibition at 10 µg/mL [1]: 49%
inhibition at 10 µg/mL [2]: 76%
inhibition at 10 µg/mL [3]: 100%
inhibition at 10 µg/mL [4]: 100%
inhibition at 10 µg/mL [5]: 92%
inhibition at 10 µg/mL [6]: 97%

CC(=O)OC[C@]12[C@H](OC(C)=O)[C@H](OC(C)=O)[C@@H]3[C@@H](OC(=O)c4ccccc4)[C@@]14O[C@@]3(C)COC(=O)c1cccnc1C(C)C(C)C(=O)O[C@@H]([C@H](OC(=O)c1cccnc1)[C@@H]2OC(C)=O)[C@]4(C)O (stereo partly specified) [HYPONINE D]
inhibition at 10 µg/mL [1]: 7%
inhibition at 10 µg/mL [2]: -9%
inhibition at 10 µg/mL [3]: 66%
inhibition at 10 µg/mL [4]: 45%
inhibition at 10 µg/mL [5]: 13%
inhibition at 10 µg/mL [6]: -15%

CC(=O)OC[C@]12[C@H](OC(C)=O)[C@H](OC(C)=O)[C@@H]3[C@@H](OC(C)=O)[C@@]14O[C@@]3(C)COC(=O)c1cnccc1C(C)C(C)(O)C(=O)O[C@@H]([C@H](OC(=O)c1ccccc1)[C@@H]2OC(C)=O)[C@]4(C)O (stereo partly specified) [HYPOGLAUNINE C]
inhibition at 10 µg/mL [1]: 2%
inhibition at 10 µg/mL [2]: -28%
inhibition at 10 µg/mL [3]: 51%
inhibition at 10 µg/mL [4]: 57%
inhibition at 10 µg/mL [5]: 20%
inhibition at 10 µg/mL [6]: -26%

CC(=O)OC[C@]12[C@H](OC(C)=O)[C@H](OC(=O)c3cccnc3)[C@@H]3[C@@H](OC(C)=O)[C@@]14O[C@@]3(C)COC(=O)c1cccnc1C(C)C(C)C(=O)O[C@@H]([C@H](OC(C)=O)[C@@H]2OC(C)=O)[C@]4(C)O (stereo partly specified)
inhibition [1]: inactive
inhibition [2]: inactive
inhibition [3]: inactive
inhibition [4]: inactive
inhibition [5]: inactive
inhibition [6]: inactive

CC(=O)OC[C@]12[C@H](OC(C)=O)[C@H](OC(C)=O)[C@@H]3[C@@H](OC(C)=O)[C@@]14O[C@@]3(C)COC(=O)c1cccnc1C(C)C(C)C(=O)O[C@@H]([C@H](OC(C)=O)[C@@H]2OC(C)=O)[C@]4(C)O (stereo partly specified) [EUONYMINE]
inhibition at 10 µg/mL [1]: 47%
inhibition at 10 µg/mL [2]: 55%
inhibition at 10 µg/mL [3]: 11%
inhibition at 10 µg/mL [4]: 53%
inhibition at 10 µg/mL [5]: 28%
inhibition at 10 µg/mL [6]: 31%

CC(=O)OC[C@]12[C@H](OC(C)=O)[C@H](OC(C)=O)[C@@H]3[C@@H](OC(C)=O)[C@@]14O[C@@]3(C)COC(=O)c1cccnc1CC[C@H](C)C(=O)O[C@@H]([C@H](OC(=O)c1ccccc1)[C@@H]2OC(C)=O)[C@]4(C)O
inhibition at 10 µg/mL [1]: 64%
inhibition at 10 µg/mL [2]: 79%
inhibition at 10 µg/mL [3]: 16%
inhibition at 10 µg/mL [4]: 67%
inhibition at 10 µg/mL [5]: 41%
inhibition at 10 µg/mL [6]: 1%

CC(=O)OC[C@]12[C@H](OC(C)=O)[C@H](OC(C)=O)[C@@H]3[C@@H](OC(C)=O)[C@@]14O[C@@]3(C)COC(=O)c1cccnc1C(C)C(C)C(=O)O[C@@H]([C@H](OC(C)=O)[C@@H]2OC(=O)c1ccccc1)[C@]4(C)O (stereo partly specified) [MAYTEINE]
inhibition at 10 µg/mL [1]: 2%
inhibition at 10 µg/mL [2]: -9%
inhibition at 10 µg/mL [3]: 14%
inhibition at 10 µg/mL [4]: 55%
inhibition at 10 µg/mL [5]: 36%
inhibition at 10 µg/mL [6]: 2%

CC(=O)OC[C@]12[C@H](OC(C)=O)[C@H](OC(C)=O)[C@@H]3[C@@H](OC(=O)c4ccccc4)[C@@]14O[C@@]3(C)COC(=O)c1cnccc1C(C)C(C)(O)C(=O)O[C@@H]([C@H](OC(=O)c1ccccc1)[C@@H]2OC(C)=O)[C@]4(C)O (stereo partly specified)
inhibition [1]: inactive
inhibition [2]: inactive
inhibition [3]: inactive
inhibition [4]: inactive
inhibition [5]: inactive
inhibition [6]: inactive

COC(=O)C[C@@H]1C(=O)CCC(C)C(=O)O[C@@H]2[C@@H]3[C@@H](OC(C)=O)[C@@]45O[C@@]3(C)COC(=O)c3cccnc3C(C)C(C)C(=O)O[C@@H]([C@H](OC(C)=O)[C@H](OC(C)=O)[C@@]4(COC1=O)[C@@H]2OC(C)=O)[C@]5(C)O (stereo partly specified) [TRIPTONINE A]
inhibition at 10 µg/mL [1]: 55%
inhibition at 10 µg/mL [2]: 62%
inhibition at 10 µg/mL [3]: -20%
inhibition at 10 µg/mL [4]: 33%
inhibition at 10 µg/mL [5]: 17%
inhibition at 10 µg/mL [6]: 43%

CC(=O)OC[C@]12[C@H](OC(C)=O)[C@H](OC(C)=O)[C@@H]3[C@@H](OC(C)=O)[C@@]14O[C@@]3(C)COC(=O)c1cccnc1CC[C@H](C)C(=O)O[C@@H]([C@H](OC(C)=O)[C@@H]2OC(C)=O)[C@]4(C)O [WILFORMINE]
inhibition at 10 µg/mL [1]: 14%
inhibition at 10 µg/mL [2]: 20%
inhibition at 10 µg/mL [3]: 77%
inhibition at 10 µg/mL [4]: 50%
inhibition at 10 µg/mL [5]: 71%
inhibition at 10 µg/mL [6]: 60%

CC(=O)OC[C@]12[C@H](OC(C)=O)[C@H](OC(C)=O)[C@@H]3[C@@H](OC(=O)c4ccccc4)[C@@]14O[C@@]3(C)COC(=O)c1cccnc1C(C)C(C)C(=O)O[C@@H]([C@H](OC(C)=O)[C@@H]2OC(C)=O)[C@]4(C)O (stereo partly specified)
inhibition at 10 µg/mL [1]: 43%
inhibition at 10 µg/mL [2]: 37%
inhibition at 10 µg/mL [3]: 100%
inhibition at 10 µg/mL [4]: 100%
inhibition at 10 µg/mL [5]: 99%
inhibition at 10 µg/mL [6]: 84%

CC(=O)OC[C@]12[C@H](OC(C)=O)[C@H](OC(C)=O)[C@@H]3[C@@H](OC(C)=O)[C@@]14O[C@@]3(C)COC(=O)c1cccnc1CC[C@@](C)(OC(=O)c1ccccc1)C(=O)O[C@@H]([C@H](OC(C)=O)[C@@H]2OC(C)=O)[C@]4(C)O [WILFORNINE A]
inhibition at 10 µg/mL [1]: -4%
inhibition at 10 µg/mL [2]: 0%
inhibition at 10 µg/mL [3]: 50%
inhibition at 10 µg/mL [4]: 23%
inhibition at 10 µg/mL [5]: 8%
inhibition at 10 µg/mL [6]: 2%

CC(=O)OC[C@]12[C@H](OC(C)=O)C(=O)[C@@H]3[C@@H](OC(C)=O)[C@@]14O[C@@]3(C)COC(=O)c1cccnc1CC[C@@](C)(O)C(=O)O[C@@H]([C@H](OC(C)=O)[C@@H]2OC(C)=O)[C@]4(C)O
inhibition [1]: inactive
inhibition [2]: inactive
inhibition [3]: inactive
inhibition [4]: inactive
inhibition [5]: inactive
inhibition [6]: inactive

CC(=O)OC[C@]12[C@H](OC(C)=O)[C@H](OC(C)=O)[C@@H]3[C@@H](OC(C)=O)[C@@]14O[C@@]3(C)COC(=O)c1cccnc1CC[C@@](C)(OC(=O)c1ccco1)C(=O)O[C@@H]([C@H](OC(C)=O)[C@@H]2OC(C)=O)[C@]4(C)O
inhibition [1]: inactive
inhibition [2]: inactive
inhibition [3]: inactive
inhibition [4]: inactive
inhibition [5]: inactive
inhibition [6]: inactive

CC(=O)OC[C@]12[C@H](OC(C)=O)[C@H](OC(C)=O)[C@@H]3[C@@H](O)[C@@]14O[C@@]3(C)COC(=O)c1cccnc1CC[C@@](C)(OC(=O)c1ccccc1)C(=O)O[C@@H]([C@H](OC(C)=O)[C@@H]2OC(C)=O)[C@]4(C)O [WILFORNINE B]
inhibition at 10 µg/mL [1]: -3%
inhibition at 10 µg/mL [2]: -6%
inhibition at 10 µg/mL [3]: 100%
inhibition at 10 µg/mL [4]: 22%
inhibition at 10 µg/mL [5]: 7%
inhibition at 10 µg/mL [6]: -23%

CC(=O)OC[C@]12[C@H](OC(C)=O)[C@H](OC(C)=O)[C@@H]3[C@@H](OC(C)=O)[C@@]14O[C@@]3(C)COC(=O)c1cccnc1CC[C@H](C)C(=O)O[C@@H]([C@H](OC(=O)c1ccco1)[C@@H]2OC(C)=O)[C@]4(C)O
inhibition at 10 µg/mL [1]: 53%
inhibition at 10 µg/mL [2]: 64%
inhibition at 10 µg/mL [3]: -53%
inhibition at 10 µg/mL [4]: 22%
inhibition at 10 µg/mL [5]: 4%
inhibition at 10 µg/mL [6]: 7%

CC(=O)OC[C@]12[C@H](OC(C)=O)[C@H](OC(C)=O)[C@@H]3[C@@H](OC(=O)c4ccccc4)[C@@]14O[C@@]3(C)COC(=O)c1cccnc1CC[C@@](C)(OC(=O)c1ccccc1)C(=O)O[C@@H]([C@H](OC(C)=O)[C@@H]2OC(C)=O)[C@]4(C)O [WILFORNINE C]
inhibition at 10 µg/mL [1]: -6%
inhibition at 10 µg/mL [2]: -11%
inhibition at 10 µg/mL [3]: 39%
inhibition at 10 µg/mL [4]: 51%
inhibition at 10 µg/mL [5]: 32%
inhibition at 10 µg/mL [6]: -8%

CC(=O)OC[C@]12[C@H](OC(C)=O)[C@H](OC(C)=O)[C@@H]3[C@@H](OC(C)=O)[C@@]14O[C@@]3(C)COC(=O)c1cnccc1C(C)C(C)C(=O)O[C@@H]([C@H](OC(C)=O)[C@@H]2O)[C@]4(C)O (stereo partly specified)
inhibition [1]: inactive
inhibition [2]: inactive
inhibition [3]: inactive
inhibition [4]: inactive
inhibition [5]: inactive
inhibition [6]: inactive

CC(=O)OC[C@]12[C@H](OC(C)=O)[C@H](OC(C)=O)[C@@H]3[C@@H](OC(=O)c4ccccc4)[C@@]14O[C@@]3(C)COC(=O)c1cccnc1C(C)C(C)C(=O)O[C@@H]([C@H](O)[C@@H]2OC(C)=O)[C@]4(C)O (stereo partly specified)
inhibition [1]: inactive
inhibition [2]: inactive
inhibition [3]: inactive
inhibition [4]: inactive
inhibition [5]: inactive
inhibition [6]: inactive
